Measured values: patent US10189831B2, “Non-nucleoside reverse transcriptase inhibitors” (Merck Sharp & Dohme Corp., priority 2012, dated 2019)

Target: HIV-1 RT wild-type enzyme (Human immunodeficiency virus type 1 group M subtype B (isolate HXB2) (HIV-1), UniProt P04585)
Assay: Determination of HIV-1 reverse transcriptase inhibitory activity (RT polymerase assay)
Assay type: biochemical
Details: HIV-1 RT wild-type enzyme 83 pM, RNA-dependent DNA polymerase reaction
Procedure: The heterodimeric nucleic acid substrate used in the HIV-1 RT polymerase reactions was generated by annealing the DNA primer, biotinylated pD500 (Sigma Aldrich, USA, 5′-biotin-ttg aaa tga ctg cgg tac ggc-3′), SEQ ID NO. 1 to the nucleotide RNA template t500 (derived from hepatitis C virus [HCV] sequence, IBA, Germany, 5′-[…]-3′), SEQ ID NO 2.). […] The mixture was then preincubated on an orbital shaker for 30 min at room temperature in microtiter plates (Costar 3365, Corning, USA). A polymerization reaction was initiated by the addition of RNA template/pD500 DNA primer hybrid (16.6 nM final of RNA/DNA hybrid) and dNTPs (2 μM dATP, dGTP, dCTP and 66.6 nM Ru-dUTP (Meso Scale Discovery, USA)). Plate was sealed and incubated for 5-10 min at room temperature on an orbital shaker. Plate was then incubated for 90 min at 37° C. and reactions quenched with 60 μl quenching buffer (50 mM EDTA, 0.7% BSA, 0.7% Tween-20, 0.017% sodium azide in PBS). […] After washing plate 3 times with 150 μL 1×PBS and blotting dry between cycles, 150 μL 1× Read Buffer T (4× Read Buffer T, Meso Scale Discovery) was added and incubated for 5 min at room temperature before counting on a Sector Imager S6000 (Meso Scale Discovery). Titration curves and IC50 values were calculated using a four parameter logistic fit according to standard procedures. […]

SMILES: CC(C)c1ccc(-c2cc(Cn3cnc(C(F)(F)F)c(Oc4cc(Cl)cc(C#N)c4)c3=O)n[nH]c2=O)cc1 [Example 49, 3-chloro-5-((1-((5-(4-isopropylphenyl)-6-oxo-1,6-dihydropyridazin-3-yl)methyl)-6-oxo-4-(trifluoromethyl)-1,6-dihydropyrimidin-5-yl)oxy)benzonitrile]
- IC50: 15 nM
